In ChEMBL document CHEMBL2057161, “Synthesis and evaluation of nitric oxide-releasing DDB derivatives as potential Pgp-mediated MDR reversal agents in MCF-7/Adr cells” (Bioorg Med Chem Lett, 2012):
Active and inactive are the calls of the source. The rule behind the calls is not given here.

Tests used:
[1] = biological target: T1, ATP-dependent translocase ABCB1 (Homo sapiens, UniProt P08183); experiment: Inhibition of P-glycoprotein overexpressed in human MCF7/ADR cells assessed as increase in doxorubicin accumulation at 25 uM incubated for 1.5 hrs prior to doxorubicin treatment measured after 1.5 hrs by HPLC analysis; format: cell-based; conditions: nci/adr-res
[2] = test system: NCI/ADR-RES; experiment: Antiproliferative activity against human MCF7/ADR up to 25 uM cells after 48 hrs by MTT assay; format: functional, cell-based
[3] = biological target: T1, ATP-dependent translocase ABCB1; experiment: Inhibition of P-glycoprotein overexpressed in human Caco2 cells assessed as increase in digoxin accumulation at 5 to 25 uM incubated for 1.5 hrs prior to digoxin treatment measured after 1.5 hrs by LC/MS/MS analysis in presence of hemoglobin; format: cell-based; conditions: caco-2, 1.5 h
[4] = biological target: T1, ATP-dependent translocase ABCB1; experiment: Inhibition of P-glycoprotein overexpressed in human Caco2 cells assessed as decrease in digoxin efflux at 25 uM incubated for 90 mins prior to digoxin treatment measured after 90 mins by LC/MS/MS analysis; format: cell-based; conditions: caco-2, 1.5 h
[5] = biological target: T1, ATP-dependent translocase ABCB1; experiment: Inhibition of P-glycoprotein in human MCF7/ADR cells assessed as potentiation of doxorubicin antiproliferative activity after 48 hrs by MTT assay; format: cell-based; conditions: nci/adr-res
[6] = test system: MCF7; experiment: Antiproliferative activity against human MCF7 up to 25 uM cells after 48 hrs by MTT assay; format: functional, cell-based
[7] = Downregulation of doxorubicin-induced P-glycoprotein expression in human MCF7/ADR cells at 25 uM after 48 hrs by Western blot analysis; format: functional, cell-based; conditions: NCI/ADR-RES
[8] = biological target: T1, ATP-dependent translocase ABCB1; experiment: Inhibition of P-glycoprotein overexpressed in human Caco2 cells assessed as increase in digoxin permeability at 25 uM incubated for 90 mins prior to digoxin treatment measured after 90 mins by LC/MS/MS analysis; format: cell-based; conditions: caco-2, 1.5 h
[9] = test system: NCI/ADR-RES; experiment: Induction of nitric oxide release in human MCF7/ADR cells at 25 uM by Griess method; format: functional, cell-based
[10] = biological target: T1, ATP-dependent translocase ABCB1; experiment: Inhibition of P-glycoprotein in human MCF7 assessed as increase in doxorubicin accumulation at 25 uM incubated for 1.5 hrs prior to doxorubicin treatment measured after 1.5 hrs by HPLC analysis; conditions: mcf7, 1.5 h
[11] = biological target: T1, ATP-dependent translocase ABCB1; experiment: Inhibition of P-glycoprotein overexpressed in human MCF7/ADR cells assessed as increase in doxorubicin accumulation at 25 uM incubated for 1.5 hrs prior to doxorubicin treatment measured after 1.5 hrs by HPLC analysis in presence of hemoglobin; format: cell-based; conditions: nci/adr-res
[12] = biological target: T1, ATP-dependent translocase ABCB1; experiment: Inhibition of P-glycoprotein in human MCF7 assessed as increase in doxorubicin accumulation at 25 uM incubated for 1.5 hrs prior to doxorubicin treatment measured after 1.5 hrs by HPLC analysis in presence of hemoglobin; conditions: mcf7, 1.5 h
[13] = test system: HepG2; experiment: Antiproliferative activity against human HepG2 cells after 48 hrs by MTT assay; format: functional, cell-based; conditions: HepG2, 48 h

T1 sequence (P08183 whole entry): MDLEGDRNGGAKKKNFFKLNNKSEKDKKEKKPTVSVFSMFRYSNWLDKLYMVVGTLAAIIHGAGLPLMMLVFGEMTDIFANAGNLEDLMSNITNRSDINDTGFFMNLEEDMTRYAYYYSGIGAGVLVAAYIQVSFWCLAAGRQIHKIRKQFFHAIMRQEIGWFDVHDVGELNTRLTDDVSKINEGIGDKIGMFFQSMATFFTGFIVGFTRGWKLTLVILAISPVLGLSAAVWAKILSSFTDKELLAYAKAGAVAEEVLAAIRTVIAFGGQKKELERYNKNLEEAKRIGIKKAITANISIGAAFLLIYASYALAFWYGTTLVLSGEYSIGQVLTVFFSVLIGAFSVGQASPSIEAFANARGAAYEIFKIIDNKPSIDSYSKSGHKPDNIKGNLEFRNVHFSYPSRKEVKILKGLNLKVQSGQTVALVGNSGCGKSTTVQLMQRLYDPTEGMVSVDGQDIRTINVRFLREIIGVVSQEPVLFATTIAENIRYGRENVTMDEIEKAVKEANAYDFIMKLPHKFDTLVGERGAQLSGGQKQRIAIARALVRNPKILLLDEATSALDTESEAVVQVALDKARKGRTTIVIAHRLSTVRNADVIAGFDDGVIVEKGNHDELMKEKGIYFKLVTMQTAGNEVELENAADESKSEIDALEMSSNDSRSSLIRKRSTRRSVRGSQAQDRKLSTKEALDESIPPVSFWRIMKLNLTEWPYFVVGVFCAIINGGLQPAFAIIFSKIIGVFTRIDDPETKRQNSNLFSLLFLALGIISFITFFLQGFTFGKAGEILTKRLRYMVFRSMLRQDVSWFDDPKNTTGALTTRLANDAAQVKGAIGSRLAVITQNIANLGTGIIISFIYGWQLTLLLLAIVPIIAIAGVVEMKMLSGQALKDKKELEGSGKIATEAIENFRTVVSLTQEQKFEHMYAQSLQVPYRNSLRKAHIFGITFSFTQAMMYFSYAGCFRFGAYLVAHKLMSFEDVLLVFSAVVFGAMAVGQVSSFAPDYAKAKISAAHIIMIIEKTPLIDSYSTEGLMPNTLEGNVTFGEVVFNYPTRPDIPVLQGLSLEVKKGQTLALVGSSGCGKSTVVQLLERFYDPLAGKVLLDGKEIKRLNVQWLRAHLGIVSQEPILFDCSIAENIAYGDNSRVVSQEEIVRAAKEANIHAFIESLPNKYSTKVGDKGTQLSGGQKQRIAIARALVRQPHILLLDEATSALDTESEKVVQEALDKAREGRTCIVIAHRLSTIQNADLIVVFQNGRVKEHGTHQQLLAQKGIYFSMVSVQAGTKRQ

Q: Which “inhibition (INH)” value [1] does the source give for `C[C@H](N)C(=O)OCCOCCOc1no[n+]([O-])c1S(=O)(=O)c1ccccc1` here?
A: Active

Q: Which “inhibition (INH)” value [1] does the source give for `COC(=O)c1cc(OC)c2c(c1-c1c(C(=O)N[C@@H](C)C(=O)OCCOCCOc3no[n+]([O-])c3S(=O)(=O)c3ccccc3)cc(OC)c3c1OCO3)OCO2` here?
A: Active

Q: And the Activity [2]?
A: inactive

Q: What about the “inhibition (INH)” value [3] of the same molecule?
A: Not Active

Q: What about the “inhibition (INH)” value [4] of the same molecule?
A: Active

Q: And the “inhibition (INH)” value [5]?
A: Dose-dependent effect

Q: And the Activity [6]?
A: inactive

Q: What about the Activity [7] of the same molecule?
A: Active

Q: And the “inhibition (INH)” value [8]?
A: Active

Q: What about the Activity [9] of the same molecule?
A: Active

Q: And the “inhibition (INH)” value [10]?
A: Not Active

Q: And the “inhibition (INH)” value [11]?
A: Not Active

Q: What about the “inhibition (INH)” value [12] of the same molecule?
A: Not Active

Q: And the IC50 [13]?
A: 1.49 µM

Q: For `C[C@H](N)C(=O)OCCCCOc1no[n+]([O-])c1S(=O)(=O)c1ccccc1`, which “inhibition (INH)” value [1] is on record?
A: Active

Q: For `COC(=O)c1cc(OC)c2c(c1-c1c(C(=O)N[C@@H](C)C(=O)OCCCOc3no[n+]([O-])c3S(=O)(=O)c3ccccc3)cc(OC)c3c1OCO3)OCO2`, which IC50 [13] is on record?
A: 1.25 µM

Q: For `COC(=O)c1cc(OC)c2c(c1-c1c(C(=O)NCCC(=O)OCCOCCOc3no[n+]([O-])c3S(=O)(=O)c3ccccc3)cc(OC)c3c1OCO3)OCO2`, which IC50 [13] is on record?
A: 1.88 µM

Q: For `COC(=O)c1cc(OC)c2c(c1-c1c(C(=O)NCCC(=O)OCCCCOc3no[n+]([O-])c3S(=O)(=O)c3ccccc3)cc(OC)c3c1OCO3)OCO2`, which IC50 [13] is on record?
A: 1.36 µM

Q: For `COC(=O)c1cc(OC)c2c(c1-c1c(C(=O)NCCC(=O)NCCOc3no[n+]([O-])c3S(=O)(=O)c3ccccc3)cc(OC)c3c1OCO3)OCO2`, which IC50 [13] is on record?
A: 1.25 µM

Q: With `COC(=O)c1cc(OC)c2c(c1-c1c(C(=O)N[C@@H](C)C(=O)OCCCCOc3no[n+]([O-])c3S(=O)(=O)c3ccccc3)cc(OC)c3c1OCO3)OCO2` as the molecule, how does the “inhibition (INH)” value [1] read?
A: Active

Q: And the Activity [2]?
A: inactive

Q: What about the “inhibition (INH)” value [3] of the same molecule?
A: Not Active

Q: And the “inhibition (INH)” value [4]?
A: Active

Q: And the “inhibition (INH)” value [5]?
A: Dose-dependent effect

Q: What about the Activity [6] of the same molecule?
A: inactive

Q: And the Activity [7]?
A: Active

Q: And the “inhibition (INH)” value [8]?
A: Active

Q: What about the Activity [9] of the same molecule?
A: Active

Q: And the “inhibition (INH)” value [10]?
A: Not Active

Q: What about the “inhibition (INH)” value [11] of the same molecule?
A: Not Active

Q: And the “inhibition (INH)” value [12]?
A: Not Active

Q: And the IC50 [13]?
A: 1.21 µM

Q: Which IC50 [13] does the source give for `COC(=O)c1cc(OC)c2c(c1-c1c(C(=O)NCCC(=O)OCCCOc3no[n+]([O-])c3S(=O)(=O)c3ccccc3)cc(OC)c3c1OCO3)OCO2` here?
A: 1.14 µM

Q: For `COC(=O)c1cc(OC)c2c(c1-c1c(C(=O)NCCC(=O)OCCOc3no[n+]([O-])c3S(=O)(=O)c3ccccc3)cc(OC)c3c1OCO3)OCO2`, which IC50 [13] is on record?
A: 1.35 µM

Q: Which IC50 [13] does the source give for `COC(=O)c1cc(OC)c2c(c1-c1c(C(=O)NCCC(=O)OC(C)(C)CCOc3no[n+]([O-])c3S(=O)(=O)c3ccccc3)cc(OC)c3c1OCO3)OCO2` here?
A: 1.36 µM

Q: Which IC50 [13] does the source give for `O=c1[nH]cc(F)c(=O)[nH]1` [FLUOROURACIL] here?
A: 15.9 µM

Q: For `COC(=O)c1cc(OC)c2c(c1-c1c(C(=O)NCCC(=O)OC(C)CCOc3no[n+]([O-])c3S(=O)(=O)c3ccccc3)cc(OC)c3c1OCO3)OCO2` (configuration not stated), which IC50 [13] is on record?
A: 1.15 µM
